In patent US5750521A, “Mercaptoacetylamide disulfide derivatives useful as inhibitors of enkephalinase and ACE” (Hoechst Marion Roussel Inc., priority 1996, dated 1998):

Molecular target: T1, ACE, rat kidney preparations (Rattus norvegicus, UniProt P47820)
T1 construct: compound- or vehicle-dosed rat kidney preparations; from tissue; host or cells: kidney of male Sprague-Dawley rats
T1 sequence (P47820 36-1313): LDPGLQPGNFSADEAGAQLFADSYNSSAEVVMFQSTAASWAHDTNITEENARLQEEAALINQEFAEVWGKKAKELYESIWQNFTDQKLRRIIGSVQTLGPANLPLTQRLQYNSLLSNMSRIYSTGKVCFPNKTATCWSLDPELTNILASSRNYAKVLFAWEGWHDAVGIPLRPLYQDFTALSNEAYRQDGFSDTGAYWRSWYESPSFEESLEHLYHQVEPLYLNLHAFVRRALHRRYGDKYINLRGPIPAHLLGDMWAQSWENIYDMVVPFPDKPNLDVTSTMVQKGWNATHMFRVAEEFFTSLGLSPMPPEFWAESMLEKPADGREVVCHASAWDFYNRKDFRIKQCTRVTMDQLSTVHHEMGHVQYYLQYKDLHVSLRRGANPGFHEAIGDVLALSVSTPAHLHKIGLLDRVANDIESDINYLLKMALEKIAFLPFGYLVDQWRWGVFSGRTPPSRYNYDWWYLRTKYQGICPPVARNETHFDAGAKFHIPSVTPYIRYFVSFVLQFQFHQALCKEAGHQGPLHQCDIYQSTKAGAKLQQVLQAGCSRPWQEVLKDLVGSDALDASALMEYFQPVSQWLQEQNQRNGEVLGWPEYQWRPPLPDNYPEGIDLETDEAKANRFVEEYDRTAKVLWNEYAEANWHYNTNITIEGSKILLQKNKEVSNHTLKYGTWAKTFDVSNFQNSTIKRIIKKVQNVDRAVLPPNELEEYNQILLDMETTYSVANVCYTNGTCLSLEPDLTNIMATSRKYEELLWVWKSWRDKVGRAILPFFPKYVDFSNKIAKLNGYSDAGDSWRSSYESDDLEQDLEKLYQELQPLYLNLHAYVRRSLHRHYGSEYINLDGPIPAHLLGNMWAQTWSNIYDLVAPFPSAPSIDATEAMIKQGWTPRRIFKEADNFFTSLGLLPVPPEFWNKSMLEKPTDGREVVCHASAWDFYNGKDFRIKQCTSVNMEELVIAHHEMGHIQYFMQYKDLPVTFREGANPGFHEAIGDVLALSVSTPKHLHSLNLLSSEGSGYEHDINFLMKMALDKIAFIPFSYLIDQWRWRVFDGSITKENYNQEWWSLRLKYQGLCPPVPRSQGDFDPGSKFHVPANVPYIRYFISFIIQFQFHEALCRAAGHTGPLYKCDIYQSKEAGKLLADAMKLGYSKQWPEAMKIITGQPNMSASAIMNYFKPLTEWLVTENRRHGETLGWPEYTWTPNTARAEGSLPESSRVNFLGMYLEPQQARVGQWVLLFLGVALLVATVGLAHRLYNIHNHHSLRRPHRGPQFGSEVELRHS
Experiment: radiometric ACE assay with tritiated hippuryl-glycyl-glycine
Assay type: biochemical
Conditions: 1 μM enalaprilat; compound- or vehicle-dosed rat kidney preparations

SMILES: C[C@H](N[C@@H](CCc1ccccc1)C(=O)O)C(=O)N1CCC[C@H]1C(=O)O [enalaprilat]
- inhibition of radioactive product formation: Complete inhibition
